# Assay results as given in ChEMBL document CHEMBL1201862, “PubChem BioAssay data set” (2004).
# Calls of active or inactive are those of the source.
# Legend:
# [1] = target: T1, Tyrosyl-DNA phosphodiesterase 2 (Homo sapiens, UniProt O95551); test: potency against TDP2 phosphodiesterase activity – biochemical, epi absorbance, IC50, dose response (AID 743297)
# T1 sequence (O95551 whole entry): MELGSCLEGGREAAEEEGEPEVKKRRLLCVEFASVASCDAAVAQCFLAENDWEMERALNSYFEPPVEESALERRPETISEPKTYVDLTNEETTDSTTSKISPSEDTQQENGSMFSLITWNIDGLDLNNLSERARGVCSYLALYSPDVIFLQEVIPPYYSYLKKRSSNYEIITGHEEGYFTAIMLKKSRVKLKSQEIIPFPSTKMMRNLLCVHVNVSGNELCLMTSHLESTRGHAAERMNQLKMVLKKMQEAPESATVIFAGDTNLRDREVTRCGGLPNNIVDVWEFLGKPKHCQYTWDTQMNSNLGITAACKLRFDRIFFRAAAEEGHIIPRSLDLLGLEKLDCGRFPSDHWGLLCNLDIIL
# Insulin-degrading enzyme [2] = target: T2, Insulin-degrading enzyme (Homo sapiens, UniProt P14735); test: recombinant IDE activation, cell-free – biochemical, fluorescence polarization, counter-screen for IDE activator project, dose response (AID 588681)
# T2 sequence (P14735 whole entry): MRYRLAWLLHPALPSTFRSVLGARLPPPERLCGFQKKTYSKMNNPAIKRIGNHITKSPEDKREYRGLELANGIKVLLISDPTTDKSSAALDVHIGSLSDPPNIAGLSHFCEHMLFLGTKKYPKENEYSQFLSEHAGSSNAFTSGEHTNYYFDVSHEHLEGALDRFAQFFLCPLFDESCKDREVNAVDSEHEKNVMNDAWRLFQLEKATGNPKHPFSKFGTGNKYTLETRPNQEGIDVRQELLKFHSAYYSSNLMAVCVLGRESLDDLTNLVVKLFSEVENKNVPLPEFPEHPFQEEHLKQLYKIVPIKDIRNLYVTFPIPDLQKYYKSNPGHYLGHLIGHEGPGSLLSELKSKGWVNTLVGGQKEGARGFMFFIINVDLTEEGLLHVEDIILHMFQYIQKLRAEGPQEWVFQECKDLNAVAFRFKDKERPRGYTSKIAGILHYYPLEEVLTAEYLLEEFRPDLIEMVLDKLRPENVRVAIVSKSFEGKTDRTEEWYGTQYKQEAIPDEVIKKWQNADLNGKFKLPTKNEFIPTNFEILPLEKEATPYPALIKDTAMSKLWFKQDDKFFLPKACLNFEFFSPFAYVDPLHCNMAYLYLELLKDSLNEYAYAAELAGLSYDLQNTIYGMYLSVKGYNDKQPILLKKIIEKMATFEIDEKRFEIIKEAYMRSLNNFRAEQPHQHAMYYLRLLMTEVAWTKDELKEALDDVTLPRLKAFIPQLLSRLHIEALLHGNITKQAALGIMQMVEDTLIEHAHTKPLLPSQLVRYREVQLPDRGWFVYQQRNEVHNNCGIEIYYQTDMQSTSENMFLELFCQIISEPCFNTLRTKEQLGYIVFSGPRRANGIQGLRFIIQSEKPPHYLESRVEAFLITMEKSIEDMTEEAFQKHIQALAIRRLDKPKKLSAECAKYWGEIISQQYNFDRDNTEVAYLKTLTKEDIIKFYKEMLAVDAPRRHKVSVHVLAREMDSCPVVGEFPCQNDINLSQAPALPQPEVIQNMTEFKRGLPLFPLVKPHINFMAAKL
# ORF 73 = ORF 73 (Human herpesvirus 8, UniProt O40947); test: KSHV LANA DNA-binding disruption – biochemical, fluorescence polarization, cherry-picked samples, dose response (AID 504725); set-up: species or system Human gammaherpesvirus 8;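 further: fluorescence polarization of a labeled DNA duplex reporting LANA DNA binding; potency is for inhibitors that block LANA binding to the DNA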
# HEK293 = test: membrane integrity loss in HEK cells – cell-based, fluorescence, cytotoxicity control for IDE activator project, dose response (AID 588440); type: functional; conditions: Homo sapiens;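 further: cytotoxicity by LDH release measuring loss of membrane integrity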
# [3] = target: T3, Rac GTPase-activating protein 1 (Homo sapiens, UniProt Q9H0H5); test: blockers of MgcRacGAP-driven Rac1 GTP hydrolysis – biochemical, ADP Hunter fluorescence, primary and confirmatory, confirmation (AID 624330); type: functional
# T3 sequence (Q9H0H5 whole entry): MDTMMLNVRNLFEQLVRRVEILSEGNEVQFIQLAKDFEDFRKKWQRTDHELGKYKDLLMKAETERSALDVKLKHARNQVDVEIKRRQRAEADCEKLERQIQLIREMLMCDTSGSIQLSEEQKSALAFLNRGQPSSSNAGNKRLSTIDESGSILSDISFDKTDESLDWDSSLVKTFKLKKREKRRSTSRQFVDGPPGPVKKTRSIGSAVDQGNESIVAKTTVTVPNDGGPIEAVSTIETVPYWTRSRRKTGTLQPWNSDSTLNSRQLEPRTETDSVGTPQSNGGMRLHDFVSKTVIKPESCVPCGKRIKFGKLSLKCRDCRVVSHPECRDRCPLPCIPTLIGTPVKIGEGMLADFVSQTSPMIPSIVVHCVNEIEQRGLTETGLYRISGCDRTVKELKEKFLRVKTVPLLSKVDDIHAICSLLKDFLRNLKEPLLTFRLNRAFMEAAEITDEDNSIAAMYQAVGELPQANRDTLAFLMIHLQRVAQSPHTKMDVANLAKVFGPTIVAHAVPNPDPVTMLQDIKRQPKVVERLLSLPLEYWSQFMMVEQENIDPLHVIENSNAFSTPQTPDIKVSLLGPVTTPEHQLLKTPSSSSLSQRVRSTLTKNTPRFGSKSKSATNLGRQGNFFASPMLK
# HeLa = test: viability loss in HeLa cells – cell-based, 24 h, cherry-picked samples, cytotoxicity control, dose response (AID 504726); type: functional, Homo sapiens;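 further: potency for cytotoxicity as loss of luminescence signal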
# Insulin-degrading enzyme [4] = target: T2, Insulin-degrading enzyme; test: cellular IDE activation of Abeta substrate cleavage – fluorescence polarization, HEK cells, dose response (AID 588439); type: functional, cell-based
# DNA topoisomerase = DNA topoisomerase (Yersinia pestis, UniProt A0A2S9PM60); test: Yersinia topoisomerase I cleavage product accumulation – biochemical, cherry-pick, dose response (AID 588525)
# Sequence of DNA topoisomerase (A0A2S9PM60 whole entry): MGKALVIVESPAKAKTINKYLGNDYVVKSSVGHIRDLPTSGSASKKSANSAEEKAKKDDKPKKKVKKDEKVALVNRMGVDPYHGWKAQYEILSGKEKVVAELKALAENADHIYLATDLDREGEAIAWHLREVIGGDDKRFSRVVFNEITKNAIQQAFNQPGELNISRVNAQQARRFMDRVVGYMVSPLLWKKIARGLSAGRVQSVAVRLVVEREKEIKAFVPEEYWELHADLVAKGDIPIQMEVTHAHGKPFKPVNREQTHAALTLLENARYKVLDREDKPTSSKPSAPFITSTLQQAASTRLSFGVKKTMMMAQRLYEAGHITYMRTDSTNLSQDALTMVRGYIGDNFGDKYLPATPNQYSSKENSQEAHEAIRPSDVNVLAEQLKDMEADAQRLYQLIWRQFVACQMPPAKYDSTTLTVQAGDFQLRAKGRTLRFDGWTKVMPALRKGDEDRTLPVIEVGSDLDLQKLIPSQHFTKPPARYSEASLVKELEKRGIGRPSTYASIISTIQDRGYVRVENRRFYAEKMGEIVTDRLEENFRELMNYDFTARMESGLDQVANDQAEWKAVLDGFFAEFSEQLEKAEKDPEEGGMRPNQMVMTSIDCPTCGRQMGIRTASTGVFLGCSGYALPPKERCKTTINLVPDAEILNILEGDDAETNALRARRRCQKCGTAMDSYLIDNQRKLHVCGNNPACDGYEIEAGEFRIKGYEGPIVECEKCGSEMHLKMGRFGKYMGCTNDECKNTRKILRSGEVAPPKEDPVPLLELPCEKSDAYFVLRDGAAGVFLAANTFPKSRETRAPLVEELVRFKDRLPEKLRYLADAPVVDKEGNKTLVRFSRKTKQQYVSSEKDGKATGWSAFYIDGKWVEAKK
# [5] = target: Peroxisome proliferator-activated receptor gamma/Nuclear receptor corepressor 2 (Homo sapiens, UniProt P37231+Q9Y618); type: functional
# [6] = target: Photoreceptor-specific nuclear receptor (Homo sapiens, UniProt Q9Y5X4); type: functional;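 further: potency for compounds that break the NR2E3 corepressor complex and count as activators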
# Sequence of Photoreceptor-specific nuclear receptor (Q9Y5X4 whole entry, the tested form may be a part): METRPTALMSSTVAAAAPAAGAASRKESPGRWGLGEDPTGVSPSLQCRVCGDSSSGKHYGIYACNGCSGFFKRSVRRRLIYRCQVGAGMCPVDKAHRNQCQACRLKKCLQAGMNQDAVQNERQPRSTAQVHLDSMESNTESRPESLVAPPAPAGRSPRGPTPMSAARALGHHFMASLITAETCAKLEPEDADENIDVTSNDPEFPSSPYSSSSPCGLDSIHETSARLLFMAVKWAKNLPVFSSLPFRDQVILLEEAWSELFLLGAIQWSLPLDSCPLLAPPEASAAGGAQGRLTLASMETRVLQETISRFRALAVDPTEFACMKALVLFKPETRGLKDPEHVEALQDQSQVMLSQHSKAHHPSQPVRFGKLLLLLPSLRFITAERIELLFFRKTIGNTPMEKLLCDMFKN
# [7] = CCR5-tropic HIV-1 fusion blockers – cell-based, CCR5-tropic Env, dose response (AID 2279); type: functional
# [8] = target: Intestinal-type alkaline phosphatase (Mus musculus, UniProt P24822); test: PubChem AID 488785; type: functional
# Sequence of Intestinal-type alkaline phosphatase (Mus musculus, UniProt P24822) (P24822 whole entry): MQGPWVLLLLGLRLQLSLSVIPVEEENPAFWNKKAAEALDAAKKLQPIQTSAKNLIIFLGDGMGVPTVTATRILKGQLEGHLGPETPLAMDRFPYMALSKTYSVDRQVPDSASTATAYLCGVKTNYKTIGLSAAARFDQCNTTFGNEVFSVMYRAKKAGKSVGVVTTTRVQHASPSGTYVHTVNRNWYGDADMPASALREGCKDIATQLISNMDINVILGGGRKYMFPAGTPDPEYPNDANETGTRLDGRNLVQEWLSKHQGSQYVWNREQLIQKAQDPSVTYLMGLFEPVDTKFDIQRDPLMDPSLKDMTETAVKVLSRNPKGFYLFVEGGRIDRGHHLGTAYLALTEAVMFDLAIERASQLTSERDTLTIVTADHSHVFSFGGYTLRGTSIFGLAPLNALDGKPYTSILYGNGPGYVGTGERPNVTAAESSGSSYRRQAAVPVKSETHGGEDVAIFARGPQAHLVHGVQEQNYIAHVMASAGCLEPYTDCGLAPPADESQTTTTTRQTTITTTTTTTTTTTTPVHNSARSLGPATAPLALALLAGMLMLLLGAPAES
# [9] = target: Intestinal-type alkaline phosphatase (Homo sapiens, UniProt P09923); test: inhibition of human intestinal alkaline phosphatase – biochemical, dose response (AID 488876); type: functional
# [10] = target: Glyceraldehyde-3-phosphate dehydrogenase (Homo sapiens, UniProt P04406)
# Cytochrome P450 1A2 = target: T4, Cytochrome P450 1A2 (Homo sapiens, UniProt P05177);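 further: PubChem cytochrome P450 panel assay, CYP1A2 panel member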
# T4 sequence (P05177 whole entry): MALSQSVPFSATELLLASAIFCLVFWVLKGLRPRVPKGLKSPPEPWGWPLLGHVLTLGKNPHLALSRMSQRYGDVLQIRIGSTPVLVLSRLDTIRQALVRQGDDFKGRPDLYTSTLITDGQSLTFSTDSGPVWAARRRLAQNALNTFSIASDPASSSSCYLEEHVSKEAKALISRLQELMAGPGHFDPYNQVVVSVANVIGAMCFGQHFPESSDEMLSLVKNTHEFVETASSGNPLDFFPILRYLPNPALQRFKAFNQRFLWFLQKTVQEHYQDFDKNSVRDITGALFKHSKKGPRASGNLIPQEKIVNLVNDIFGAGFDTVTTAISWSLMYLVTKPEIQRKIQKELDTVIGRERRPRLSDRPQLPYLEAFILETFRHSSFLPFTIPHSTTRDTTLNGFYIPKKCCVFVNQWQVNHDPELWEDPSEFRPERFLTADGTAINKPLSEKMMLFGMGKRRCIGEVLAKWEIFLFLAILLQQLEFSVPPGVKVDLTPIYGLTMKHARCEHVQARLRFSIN
# [11] = target: T5, Alkaline phosphatase, tissue-nonspecific isozyme (Homo sapiens, UniProt P05186); test: TNAP enzyme inhibition by screening hits, dose response, selectivity assay for mouse IAP inhibitor project, biochemical, human TNAP, uHTS hits (AID 488906); type: functional
# T5 sequence (P05186 whole entry): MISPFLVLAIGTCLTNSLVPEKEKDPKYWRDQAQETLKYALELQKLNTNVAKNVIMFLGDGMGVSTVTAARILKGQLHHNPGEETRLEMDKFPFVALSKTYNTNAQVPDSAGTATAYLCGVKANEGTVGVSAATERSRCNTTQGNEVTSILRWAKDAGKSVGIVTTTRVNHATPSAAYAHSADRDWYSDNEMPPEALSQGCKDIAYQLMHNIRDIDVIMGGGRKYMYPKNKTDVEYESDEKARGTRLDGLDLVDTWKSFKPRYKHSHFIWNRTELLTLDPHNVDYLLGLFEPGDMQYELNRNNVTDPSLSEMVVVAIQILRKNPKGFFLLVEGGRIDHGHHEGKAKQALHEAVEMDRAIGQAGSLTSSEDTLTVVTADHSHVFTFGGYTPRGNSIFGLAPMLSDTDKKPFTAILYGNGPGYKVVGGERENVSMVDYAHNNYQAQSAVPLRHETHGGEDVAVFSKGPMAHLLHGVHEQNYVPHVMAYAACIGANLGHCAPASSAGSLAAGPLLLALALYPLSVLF
# [12] = target: T6, Tyrosine-protein phosphatase non-receptor type 7 (Homo sapiens, UniProt P35236); type: functional
# T6 sequence (P35236 whole entry): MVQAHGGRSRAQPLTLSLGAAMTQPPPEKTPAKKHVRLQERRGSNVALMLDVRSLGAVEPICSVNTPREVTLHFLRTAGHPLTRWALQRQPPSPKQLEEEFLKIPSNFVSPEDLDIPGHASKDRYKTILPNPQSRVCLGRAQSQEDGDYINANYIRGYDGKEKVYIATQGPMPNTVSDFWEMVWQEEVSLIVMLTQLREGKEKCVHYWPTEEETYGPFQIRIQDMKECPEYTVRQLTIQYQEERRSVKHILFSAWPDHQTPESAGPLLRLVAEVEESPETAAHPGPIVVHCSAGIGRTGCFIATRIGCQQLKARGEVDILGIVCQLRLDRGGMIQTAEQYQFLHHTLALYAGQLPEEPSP
# [13] = target: T6, Tyrosine-protein phosphatase non-receptor type 7; test: redox-active compounds inhibiting HePTP phosphatase – biochemical, fluorescence, mechanism study (AID 2068); type: functional
# [14] = target: Induced myeloid leukemia cell differentiation protein Mcl-1 (Homo sapiens, UniProt Q07820); type: functional
# Sequence of Induced myeloid leukemia cell differentiation protein Mcl-1 (Q07820 whole entry): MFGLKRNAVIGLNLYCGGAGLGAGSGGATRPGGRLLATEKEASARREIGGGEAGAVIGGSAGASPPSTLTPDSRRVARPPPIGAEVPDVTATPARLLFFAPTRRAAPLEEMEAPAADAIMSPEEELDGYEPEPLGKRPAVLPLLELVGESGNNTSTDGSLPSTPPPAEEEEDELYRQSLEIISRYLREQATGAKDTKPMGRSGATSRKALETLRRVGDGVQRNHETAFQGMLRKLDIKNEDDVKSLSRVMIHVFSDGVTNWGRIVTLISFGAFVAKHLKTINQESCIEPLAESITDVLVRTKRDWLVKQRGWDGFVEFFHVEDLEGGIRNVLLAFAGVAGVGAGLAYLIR
# [15] = target: T7, Dual specificity protein phosphatase 6 (Rattus norvegicus, UniProt Q64346); type: functional
# T7 sequence (Q64346 whole entry): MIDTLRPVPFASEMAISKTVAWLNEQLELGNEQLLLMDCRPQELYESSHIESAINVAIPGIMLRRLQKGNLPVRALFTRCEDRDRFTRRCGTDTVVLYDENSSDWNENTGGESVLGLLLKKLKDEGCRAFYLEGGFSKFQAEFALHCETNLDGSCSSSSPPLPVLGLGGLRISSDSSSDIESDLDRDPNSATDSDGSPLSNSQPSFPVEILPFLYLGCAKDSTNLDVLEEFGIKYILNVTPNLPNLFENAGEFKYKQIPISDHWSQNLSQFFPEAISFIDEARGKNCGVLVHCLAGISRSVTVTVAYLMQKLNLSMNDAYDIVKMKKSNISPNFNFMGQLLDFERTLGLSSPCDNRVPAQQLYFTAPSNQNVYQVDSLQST
# [16] = target: Beta-adrenergic receptor kinase 1 (Homo sapiens, UniProt P25098); test: aptamer displacement from bead-bound GRK2 – biochemical, cherry pick 1, bead flow cytometry, dose response (AID 504500)
# [17] = target: T8, Dual specificity protein phosphatase 3 (Homo sapiens, UniProt P51452); test: MOA VHR1 Fluorescent secondary assay for identification of redox-state modulating compounds. [Related pubchem assays (depositor defined):AID1654, AID1661, AID1878, AID1957]
# T8 sequence (P51452 whole entry): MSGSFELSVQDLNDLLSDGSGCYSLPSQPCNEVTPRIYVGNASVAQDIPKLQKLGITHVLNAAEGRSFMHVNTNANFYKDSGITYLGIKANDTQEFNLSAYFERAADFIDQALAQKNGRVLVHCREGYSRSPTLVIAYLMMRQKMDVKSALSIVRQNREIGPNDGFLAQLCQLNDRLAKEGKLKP
# [18] = target: T8, Dual specificity protein phosphatase 3; test: SAR VHR1 Fluorescent Assay for In Vitro dose response studies. [Related pubchem assays (depositor defined):AID1654, AID1661, AID1878, AID1992, AID2004, AID2070, AID2085]; type: functional
# Cytochrome P450 2C9 = Cytochrome P450 2C9 (Homo sapiens, UniProt P11712)
# [19] = target: T7, Dual specificity protein phosphatase 6
# Phospholipase A2 = Phospholipase A2 (Homo sapiens, UniProt P04054); type: functional;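 further: confirmatory dose-response counterscreen on phospholipase A2, testing hits that came from an ultra-high-throughput screen for ATG4B inhibitors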
# Sequence of Phospholipase A2 (P04054 whole entry): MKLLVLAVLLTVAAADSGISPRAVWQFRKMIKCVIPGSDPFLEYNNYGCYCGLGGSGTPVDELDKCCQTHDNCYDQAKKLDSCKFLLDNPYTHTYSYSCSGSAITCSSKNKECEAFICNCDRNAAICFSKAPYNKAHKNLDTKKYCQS
# cells = type: functional
# Cysteine protease ATG4B = Cysteine protease ATG4B (Homo sapiens, UniProt Q9Y4P1); type: functional;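 further: Fluorescence-based dose-response confirmation assay measuring inhibition of ATG4B activity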
# Sequence of Cysteine protease ATG4B (Q9Y4P1 whole entry): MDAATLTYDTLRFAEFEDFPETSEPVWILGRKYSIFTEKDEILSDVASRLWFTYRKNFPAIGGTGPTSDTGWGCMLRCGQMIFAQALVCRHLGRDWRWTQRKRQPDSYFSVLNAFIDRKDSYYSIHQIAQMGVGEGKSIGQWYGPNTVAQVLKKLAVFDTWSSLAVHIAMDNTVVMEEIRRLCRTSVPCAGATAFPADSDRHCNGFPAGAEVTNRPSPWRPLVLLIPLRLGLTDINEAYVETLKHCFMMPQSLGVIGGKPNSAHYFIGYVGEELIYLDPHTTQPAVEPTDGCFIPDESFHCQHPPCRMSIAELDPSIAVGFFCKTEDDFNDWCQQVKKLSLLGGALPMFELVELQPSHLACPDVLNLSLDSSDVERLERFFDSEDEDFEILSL
# Phospholipase D2 = Phospholipase D2 (Homo sapiens, UniProt O14939); test: cellular phospholipase D2 inhibition IC50 – cell-based, dose response (AID 602147); type: functional;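 further: cellular assay in HEK293 cells overexpressing GFP-tagged PLD2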
# Sequence of Phospholipase D2 (O14939 whole entry): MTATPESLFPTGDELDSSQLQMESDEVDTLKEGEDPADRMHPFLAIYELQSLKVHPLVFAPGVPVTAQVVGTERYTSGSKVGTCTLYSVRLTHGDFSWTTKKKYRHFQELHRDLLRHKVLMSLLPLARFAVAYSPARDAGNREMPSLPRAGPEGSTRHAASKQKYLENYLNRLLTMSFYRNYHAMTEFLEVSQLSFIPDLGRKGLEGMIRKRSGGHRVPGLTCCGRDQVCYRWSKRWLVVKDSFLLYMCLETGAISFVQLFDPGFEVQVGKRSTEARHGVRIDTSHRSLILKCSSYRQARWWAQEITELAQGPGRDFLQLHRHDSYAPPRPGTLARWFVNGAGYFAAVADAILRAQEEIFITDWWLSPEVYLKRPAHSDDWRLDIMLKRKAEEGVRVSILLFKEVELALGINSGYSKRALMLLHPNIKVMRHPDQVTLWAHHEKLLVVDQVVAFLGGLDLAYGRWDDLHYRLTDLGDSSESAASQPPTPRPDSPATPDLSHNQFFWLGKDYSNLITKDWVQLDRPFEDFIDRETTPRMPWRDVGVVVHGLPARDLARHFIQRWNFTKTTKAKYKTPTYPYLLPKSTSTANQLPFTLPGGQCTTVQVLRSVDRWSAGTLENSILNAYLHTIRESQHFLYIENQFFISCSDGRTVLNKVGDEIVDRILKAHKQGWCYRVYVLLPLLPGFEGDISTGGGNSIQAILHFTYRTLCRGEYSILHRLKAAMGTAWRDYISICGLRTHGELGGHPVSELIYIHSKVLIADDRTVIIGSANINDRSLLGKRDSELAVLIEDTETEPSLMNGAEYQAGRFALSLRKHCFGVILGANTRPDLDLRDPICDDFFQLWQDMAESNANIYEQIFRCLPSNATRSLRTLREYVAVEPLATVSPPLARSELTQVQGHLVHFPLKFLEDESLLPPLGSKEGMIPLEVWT
# Phospholipase D1 = Phospholipase D1 (Homo sapiens, UniProt Q13393); test: cellular phospholipase D1 inhibition IC50 – cell-based, dose response (AID 602151); type: functional;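 further: cellular PLD1 assay in Calu-1 cells stimulated with PMA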
# Sequence of Phospholipase D1 (Q13393 whole entry): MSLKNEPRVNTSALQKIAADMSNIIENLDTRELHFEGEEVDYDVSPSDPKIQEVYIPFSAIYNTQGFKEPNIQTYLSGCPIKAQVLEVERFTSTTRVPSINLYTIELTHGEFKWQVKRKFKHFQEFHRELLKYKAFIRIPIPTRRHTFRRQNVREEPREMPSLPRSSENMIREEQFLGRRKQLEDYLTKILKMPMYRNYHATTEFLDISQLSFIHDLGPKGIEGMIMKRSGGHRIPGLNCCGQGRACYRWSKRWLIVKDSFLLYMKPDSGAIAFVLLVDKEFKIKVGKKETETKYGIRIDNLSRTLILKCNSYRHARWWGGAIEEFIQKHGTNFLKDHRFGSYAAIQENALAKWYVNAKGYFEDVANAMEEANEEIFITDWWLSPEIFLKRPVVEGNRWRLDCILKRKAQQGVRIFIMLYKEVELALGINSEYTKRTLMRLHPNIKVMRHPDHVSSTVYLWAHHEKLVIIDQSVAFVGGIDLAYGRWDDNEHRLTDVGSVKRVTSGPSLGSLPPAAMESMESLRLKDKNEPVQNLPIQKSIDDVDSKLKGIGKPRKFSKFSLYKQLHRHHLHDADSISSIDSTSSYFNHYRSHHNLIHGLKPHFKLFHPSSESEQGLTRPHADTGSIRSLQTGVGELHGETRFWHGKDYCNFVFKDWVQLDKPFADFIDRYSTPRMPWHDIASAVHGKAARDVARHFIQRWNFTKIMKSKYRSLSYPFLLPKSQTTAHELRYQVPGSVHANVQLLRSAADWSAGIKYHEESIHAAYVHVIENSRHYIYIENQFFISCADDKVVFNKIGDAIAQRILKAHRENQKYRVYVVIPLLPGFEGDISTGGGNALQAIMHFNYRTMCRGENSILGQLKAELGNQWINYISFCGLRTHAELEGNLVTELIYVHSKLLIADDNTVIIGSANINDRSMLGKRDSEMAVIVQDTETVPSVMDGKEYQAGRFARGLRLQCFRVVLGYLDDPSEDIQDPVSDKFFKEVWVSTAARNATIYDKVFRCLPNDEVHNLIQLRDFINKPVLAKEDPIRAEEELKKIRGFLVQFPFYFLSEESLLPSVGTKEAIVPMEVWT
smiles,measurement,setting,value
C[n+]1c2cc(N)ccc2cc2ccc(N)cc21,IC50,[1],> 128 µM (inactive)
same,EC50,Insulin-degrading enzyme [2],> 54.7 µM (inactive)
same,AC50,ORF 73,285 nM (active)
same,IC50,HEK293,> 89.2 µM (inactive)
same,IC50,[3],97.5 µM (active)
same,AC50,HeLa,7.94 µM (active)
same,EC50,Insulin-degrading enzyme [4],> 54.7 µM (inactive)
Cc1cc(N2C(=O)C(O)=C(C(=O)c3cc4ccccc4o3)C2c2cccc(Br)c2)no1 (stereo not given),AC50,DNA topoisomerase,3.24 µM (active)
same,IC50,[5],1.97 µM (active)
same,IC50,[6],> 39.8 µM (not active)
same,IC50,[7],> 50 µM (active)
O=C(O)c1ccccc1-c1ccc(/C=c2\sc3nc4cc(Br)cnc4n3c2=O)o1,IC50,[8],6.36 µM (active)
same,IC50,[9],> 100 µM (inactive)
same,IC50,[10],2.31 µM (active)
same,AC50,Cytochrome P450 1A2,17.8 µM (inconclusive)
same,IC50,[11],31.7 µM (active)
same,IC50,[12],1.26 µM (active)
same,IC50,[13],159 nM (active)
same,IC50,[14],3.32 µM (active)
same,IC50,[15],4.92 µM (active)
same,EC50,[16],2.39 µM (active)
same,IC50,[17],308 nM (active)
same,IC50,[18],1.25 µM (active)
same,AC50,Cytochrome P450 2C9,20 µM (inconclusive)
same,IC50,[19],6.8 µM (active)
O=[N+]([O-])c1cc2oc3c(c2c(/C=N/Cc2ccccc2)c1O)CCCC3,IC50,Phospholipase A2,502 nM (active)
same,IC50,cells,20.6 µM (active)
same,IC50,Cysteine protease ATG4B,1.28 µM (active)
C[C@@H](CN1CCC(n2c(=O)[nH]c3cc(I)ccc32)CC1)NC(=O)c1ccc(Cl)cc1,IC50,Phospholipase D2,2.4 µM (active)
same,IC50,Phospholipase D1,16 nM (active)
